From ChEMBL document CHEMBL4004878, “Design, synthesis and structure-bactericidal activity relationships of novel 9-oxime ketolides and reductive epimers of acylides” (2017)
Converted amounts (≈) assume the structure as drawn.

Assays:
Format in all cases: functional
Staphylococcus aureus [1] = test: Bacteriostatic activity against methicillin-resistant Staphylococcus aureus PU32 expressing inducible ermA after 20 hrs by two-fold microbroth dilution method; conditions: PU32, 20 h
Streptococcus pyogenes [2] = test: Ratio of MBC to MIC for Streptococcus pyogenes 01-968 expressing inducible ermA
Haemophilus influenzae [3] = test: Bacteriostatic activity against azithromycin-susceptible Haemophilus influenzae ATCC 49247 after 20 to 24 hrs by two-fold microbroth dilution method
Moraxella catarrhalis [4] = test: Bacteriostatic activity against erythromycin-susceptible Moraxella catarrhalis 11B366 after 20 hrs by two-fold microbroth dilution method; conditions: 11B366, 20 h
Streptococcus pneumoniae [5] = test: Ratio of MBC to MIC for penicillin-susceptible Streptococcus pneumoniae PU09
Haemophilus influenzae [6] = test: Bactericidal activity against azithromycin-susceptible Haemophilus influenzae ATCC 49247 incubated for 20 to 24 hrs followed by sub-culturing for 24 hrs in absence of compound
Moraxella catarrhalis [7] = test: Bactericidal activity against erythromycin-susceptible Moraxella catarrhalis 11B366 incubated for 20 hrs followed by sub-culturing for 24 hrs in absence of compound
Streptococcus pneumoniae [8] = test: Bactericidal activity against […] Streptococcus pneumoniae ATCC 49619 incubated for 20 to 24 hrs followed by sub-culturing for 24 hrs in absence of compound
Streptococcus pyogenes [9] = test: Ratio of MBC to MIC for Streptococcus pyogenes 12-207 expressing mef
Streptococcus pyogenes [10] = test: Bacteriostatic activity against Streptococcus pyogenes 12-207 expressing mef after 20 to 24 hrs by two-fold microbroth dilution method
Staphylococcus aureus [11] = test: Bacteriostatic activity against methicillin-resistant Staphylococcus aureus PU20 expressing constitutive ermC after 20 hrs by two-fold microbroth dilution method; conditions: PU20, 20 h
Staphylococcus aureus [12] = test: Ratio of MBC to MIC for methicillin-resistant Staphylococcus aureus PU20 expressing constitutive ermC
Staphylococcus aureus [13] = test: Bactericidal activity against methicillin-resistant Staphylococcus aureus PU32 expressing inducible ermA incubated for 20 hrs followed by sub-culturing for 24 hrs in absence of compound
Streptococcus pyogenes [14] = test: Bacteriostatic activity against Streptococcus pyogenes 01-968 expressing inducible ermA after 20 to 24 hrs by two-fold microbroth dilution method
Staphylococcus aureus [15] = test: Bactericidal activity against methicillin-resistant Staphylococcus aureus PU20 expressing constitutive ermC incubated for 20 hrs followed by sub-culturing for 24 hrs in absence of compound
Streptococcus pyogenes [16] = test: Bactericidal activity against Streptococcus pyogenes 12-207 expressing mef incubated for 20 to 24 hrs followed by sub-culturing for 24 hrs in absence of compound
Haemophilus influenzae [17] = test: Bacteriostatic activity against azithromycin-susceptible/ampicillin-resistant Haemophilus influenzae 11P307 after 20 to 24 hrs by two-fold microbroth dilution method
Streptococcus pneumoniae [18] = test: Bactericidal activity against penicillin-susceptible Streptococcus pneumoniae PU09 incubated for 20 to 24 hrs followed by sub-culturing for 24 hrs in absence of compound
Haemophilus influenzae [19] = test: Ratio of MBC to MIC against azithromycin-susceptible Haemophilus influenzae ATCC 49247
Haemophilus influenzae [20] = test: Ratio of MBC to MIC for azithromycin susceptible/ampicillin-resistant Haemophilus influenzae 11P307
Streptococcus pneumoniae [21] = test: Bacteriostatic activity against penicillin-susceptible Streptococcus pneumoniae PU09 after 20 to 24 hrs by two-fold microbroth dilution method
Streptococcus pyogenes [22] = test: Bactericidal activity against Streptococcus pyogenes 01-968 expressing inducible ermA incubated for 20 to 24 hrs followed by sub-culturing for 24 hrs in absence of compound
Moraxella catarrhalis [23] = test: Ratio of MBC to MIC against erythromycin-susceptible Moraxella catarrhalis 11B366
Staphylococcus aureus [24] = test: Ratio of MBC to MIC against methicillin-resistant Staphylococcus aureus PU32 expressing inducible ermA
Haemophilus influenzae [25] = test: Bactericidal activity against azithromycin susceptible/ampicillin-resistant Haemophilus influenzae 11P307 incubated for 20 to 24 hrs followed by sub-culturing for 24 hrs in absence of compound
Streptococcus pneumoniae [26] = test: Ratio of MBC to MIC for […] Streptococcus pneumoniae ATCC 49619
Streptococcus pneumoniae [27] = test: Bacteriostatic activity against […] Streptococcus pneumoniae ATCC 49619 after 20 to 24 hrs by two-fold microbroth dilution method
Moraxella catarrhalis [28] = test: Bacteriostatic activity against erythromycin-susceptible Moraxella catarrhalis 13L332 after 20 hrs by two-fold microbroth dilution method; conditions: 13L332, 20 h
Moraxella catarrhalis [29] = test: Bactericidal activity against erythromycin-susceptible Moraxella catarrhalis 13L332 incubated for 20 hrs followed by sub-culturing for 24 hrs in absence of compound
Moraxella catarrhalis [30] = test: Ratio of MBC to MIC against erythromycin-susceptible Moraxella catarrhalis 13L332

Structure (SMILES)	MIC (Staphylococcus aureus [1])	Ratio (Streptococcus pyogenes [2])	MIC (Haemophilus influenzae [3])	MIC (Moraxella catarrhalis [4])	Ratio (Streptococcus pneumoniae [5])	MBC (Haemophilus influenzae [6])	MBC (Streptococcus pneumoniae [8])	MIC (Staphylococcus aureus [11])	MBC (Staphylococcus aureus [13])	MIC (Streptococcus pyogenes [14])	MBC (Staphylococcus aureus [15])	MIC (Haemophilus influenzae [17])	MBC (Streptococcus pneumoniae [18])	Ratio (Haemophilus influenzae [19])	Ratio (Haemophilus influenzae [20])	MIC (Streptococcus pneumoniae [21])	MBC (Streptococcus pyogenes [22])	Ratio (Staphylococcus aureus [24])	MBC (Haemophilus influenzae [25])	MIC (Streptococcus pneumoniae [27])	other results
CC[C@H]1OC(=O)[C@H](C)C(=O)[C@H](C)[C@@H](O[C@@H]2O[C@H](C)C[C@H](N(C)C)[C@H]2O)[C@](C)(OC)C[C@@H](C)/C(=N\OC/C=C/c2cnc3ccccc3c2)[C@H](C)[C@H]2OC(=O)O[C@@]21C	1 µg/mL (≈ 1.26 µM)	>8	64 µg/mL (≈ 80.4 µM)	2 µg/mL (≈ 2.51 µM)	2	> 256 µg/mL	0.031 µg/mL (≈ 0.0389 µM)	32 µg/mL (≈ 40.2 µM)	> 8 µg/mL	0.062 µg/mL (≈ 0.0779 µM)	32 µg/mL (≈ 40.2 µM)	8 to 32 µg/mL (≈ 10.1 to 40.2 µM)	0.5 µg/mL (≈ 0.628 µM)	>4	>=4 - 8	0.25 µg/mL (≈ 0.314 µM)	> 0.5 µg/mL	>8	64 to 128 µg/mL (≈ 80.4 to 161 µM)	≤ 0.008 µg/mL	MBC (Moraxella catarrhalis [7]): 2 µg/mL (≈ 2.51 µM); Ratio (Streptococcus pyogenes [9]): >8; MIC (Streptococcus pyogenes [10]): 0.016 µg/mL (≈ 0.0201 µM); Ratio (Staphylococcus aureus [12]): 1; MBC (Streptococcus pyogenes [16]): > 0.125 µg/mL; Ratio (Moraxella catarrhalis [23]): 1; Ratio (Streptococcus pneumoniae [26]): >=4
CC[C@H]1OC(=O)[C@@](C)(F)C(=O)[C@H](C)[C@@H](O[C@@H]2O[C@H](C)C[C@H](N(C)C)[C@H]2O)[C@](C)(OC)C[C@@H](C)/C(=N\OC/C=C/c2cncc(C(N)=O)c2)[C@H](C)[C@H]2OC(=O)O[C@@]21C	1 µg/mL (≈ 1.24 µM)	>8	16 µg/mL (≈ 19.8 µM)		2	32 µg/mL (≈ 39.7 µM)	0.125 µg/mL (≈ 0.155 µM)	> 256 µg/mL	8 µg/mL (≈ 9.91 µM)	0.062 µg/mL (≈ 0.0768 µM)	> 256 µg/mL	16 µg/mL (≈ 19.8 µM)	0.5 µg/mL (≈ 0.62 µM)	2	1	0.25 µg/mL (≈ 0.31 µM)	> 0.5 µg/mL	8	16 µg/mL (≈ 19.8 µM)	0.062 µg/mL (≈ 0.0768 µM)	MIC (Moraxella catarrhalis [28]): 0.062 µg/mL (≈ 0.0768 µM); MBC (Moraxella catarrhalis [29]): > 0.5 µg/mL; Ratio (Moraxella catarrhalis [30]): >8
CC[C@H]1OC(=O)[C@@](C)(F)C(=O)[C@H](C)[C@@H](O[C@@H]2O[C@H](C)C[C@H](N(C)C)[C@H]2O)[C@](C)(OC)C[C@@H](C)/C(=N\OC/C=C/c2cnc3ccccc3c2)[C@H](C)[C@H]2OC(=O)O[C@@]21C	2 µg/mL (≈ 2.46 µM)	8		2 µg/mL (≈ 2.46 µM)	2		0.062 µg/mL (≈ 0.0762 µM)	64 µg/mL (≈ 78.6 µM)	> 16 µg/mL	0.25 µg/mL (≈ 0.307 µM)	256 µg/mL (≈ 315 µM)	8 µg/mL (≈ 9.83 µM)	1 µg/mL (≈ 1.23 µM)		>8	0.5 µg/mL (≈ 0.614 µM)	2 µg/mL (≈ 2.46 µM)	>8	> 64 µg/mL	≤ 0.008 µg/mL	MBC (Moraxella catarrhalis [7]): 2 µg/mL (≈ 2.46 µM); Ratio (Streptococcus pyogenes [9]): >8; MIC (Streptococcus pyogenes [10]): 0.062 µg/mL (≈ 0.0762 µM); Ratio (Staphylococcus aureus [12]): 4; MBC (Streptococcus pyogenes [16]): > 0.5 µg/mL; Ratio (Moraxella catarrhalis [23]): 1; Ratio (Streptococcus pneumoniae [26]): >=8
CC[C@H]1OC(=O)[C@@](C)(F)C(=O)[C@H](C)[C@@H](O[C@@H]2O[C@H](C)C[C@H](N(C)C)[C@H]2O)[C@](C)(OC)C[C@@H](C)/C(=N\OC/C=C/c2cncc(N)c2)[C@H](C)[C@H]2OC(=O)O[C@@]21C	0.5 µg/mL (≈ 0.642 µM)	>8	32 µg/mL (≈ 41.1 µM)		2	32 µg/mL (≈ 41.1 µM)	0.25 µg/mL (≈ 0.321 µM)	> 256 µg/mL	> 4 µg/mL	0.062 µg/mL (≈ 0.0796 µM)	> 256 µg/mL	16 µg/mL (≈ 20.5 µM)	1 µg/mL (≈ 1.28 µM)	1	2	0.5 µg/mL (≈ 0.642 µM)	> 0.5 µg/mL	>8	32 µg/mL (≈ 41.1 µM)	0.125 µg/mL (≈ 0.16 µM)	MIC (Moraxella catarrhalis [28]): 0.031 µg/mL (≈ 0.0398 µM); MBC (Moraxella catarrhalis [29]): > 0.25 µg/mL; Ratio (Moraxella catarrhalis [30]): >8
CC[C@H]1OC(=O)[C@H](C)[C@@H](O[C@H]2C[C@@](C)(OC)[C@@H](O)[C@H](C)O2)[C@H](C)[C@@H](O[C@@H]2O[C@H](C)C[C@H](N(C)C)[C@H]2O)[C@](C)(OC)C[C@@H](C)C(=O)[C@H](C)[C@@H](O)[C@]1(C)O [CLARITHROMYCIN]	8 to 32 µg/mL (≈ 10.7 to 42.8 µM)	>8	16 µg/mL (≈ 21.4 µM)	0.125 µg/mL (≈ 0.167 µM)	2	32 µg/mL (≈ 42.8 µM)	0.062 to 0.125 µg/mL (≈ 0.0829 to 0.167 µM)	> 256 µg/mL	16 to 256 µg/mL (≈ 21.4 to 342 µM)	1 µg/mL (≈ 1.34 µM)	> 256 µg/mL	1 to 8 µg/mL (≈ 1.34 to 10.7 µM)	8 µg/mL (≈ 10.7 µM)	2	2 - 8	4 µg/mL (≈ 5.35 µM)	> 8 µg/mL	>2 - 8	8 to 16 µg/mL (≈ 10.7 to 21.4 µM)	0.031 to 0.062 µg/mL (≈ 0.0414 to 0.0829 µM)	MBC (Moraxella catarrhalis [7]): 0.25 µg/mL (≈ 0.334 µM); Ratio (Streptococcus pyogenes [9]): 2; MIC (Streptococcus pyogenes [10]): 16 µg/mL (≈ 21.4 µM); MIC (Moraxella catarrhalis [28]): 0.031 µg/mL (≈ 0.0414 µM); MBC (Streptococcus pyogenes [16]): 32 µg/mL (≈ 42.8 µM); MBC (Moraxella catarrhalis [29]): 0.125 µg/mL (≈ 0.167 µM); Ratio (Moraxella catarrhalis [23]): 2; Ratio (Moraxella catarrhalis [30]): 4
CC[C@H]1OC(=O)[C@H](C)C(=O)[C@H](C)[C@@H](O[C@@H]2O[C@H](C)C[C@H](N(C)C)[C@H]2O)[C@](C)(OC)C[C@@H](C)C(=O)[C@H](C)[C@H]2N(CCCCn3cnc(-c4cccnc4)c3)C(=O)O[C@]12C [TELITHROMYCIN]	0.125 to 0.25 µg/mL (≈ 0.154 to 0.308 µM)	2 - 8	8 µg/mL (≈ 9.85 µM)	0.25 µg/mL (≈ 0.308 µM)	2 - 4	8 µg/mL (≈ 9.85 µM)	0.031 µg/mL (≈ 0.0382 µM)	> 256 µg/mL	1 to 2 µg/mL (≈ 1.23 to 2.46 µM)	0.062 µg/mL (≈ 0.0764 µM)	> 256 µg/mL	1 to 4 µg/mL (≈ 1.23 to 4.93 µM)	0.5 to 1 µg/mL (≈ 0.616 to 1.23 µM)	1	1 - 4	0.25 µg/mL (≈ 0.308 µM)	0.125 to 0.5 µg/mL (≈ 0.154 to 0.616 µM)	>8	4 µg/mL (≈ 4.93 µM)	0.016 to 0.031 µg/mL (≈ 0.0197 to 0.0382 µM)	MBC (Moraxella catarrhalis [7]): 0.25 µg/mL (≈ 0.308 µM); Ratio (Streptococcus pyogenes [9]): 2; MIC (Streptococcus pyogenes [10]): 0.5 µg/mL (≈ 0.616 µM); MIC (Moraxella catarrhalis [28]): 0.125 µg/mL (≈ 0.154 µM); MBC (Streptococcus pyogenes [16]): 1 µg/mL (≈ 1.23 µM); MBC (Moraxella catarrhalis [29]): 0.5 µg/mL (≈ 0.616 µM); Ratio (Moraxella catarrhalis [23]): 1; Ratio (Moraxella catarrhalis [30]): 4; Ratio (Streptococcus pneumoniae [26]): 1 - 2
